From patent US20250282768A1 (Janssen Pharmaceutica NV, priority 2022, published 2025)

Each molecule was assayed on p-IKKa levels in L363 (NIK translocated multiple myeloma) cells (assay: Assay 2: Effect of compounds on p-IKKa levels in L363 (NIK translocated multiple myeloma) cells). Conditions: Homo sapiens, L-363, 6 h, read-out: Assay 2 IC50 (nM), p-IKKa (Ser 176/180) in BAFF stimulated L363 cells with MG132, 6 h; average if tested more than once.
Assay type: cell-based
Procedure: Assay 2: Effect of Compounds on p-IKKa Levels in L363 (NIK Translocated Multiple Myeloma) Cells
All compounds tested were dissolved and serially diluted in DMSO, 1:3 dilution for 11 points in an Echo compatible plate. 100% DMSO was added to columns 12 and 24 of the plate to serve as high and low signal controls. This compound plate was used to spot 20 nL of compound or DMSO into a Greiner 384 well TC plate (781080). The final DMSO concentration was 0.3% (v/v) in cell assays. Human L363 cells (ATCC) were cultured in RPM11640 medium supplemented with GlutaMax, non-essential amino acids, sodium pyruvate and 10% fetal bovine serum. Cells were routinely maintained at densities of 0.2×10^6 cells per ml—2×10^6 cells per mL at 37° C. in a humidified 5% CO2 atmosphere incubator. Cells were passaged twice a week splitting back to obtain the low density. The day before the assay, cells were washed twice in HBSS (Hank's Balanced Salt Solution), resuspended in Dulbecco's Modified Eagle Medium (DMEM)+0.5% IgG and protease free BSA (Jackson Immuno Research Laboratories), +/−250 ng/ml recombinant human B-cell activating factor (BAFF/BLyS/TNFSF13B) and incubated overnight at 37° C. in a humidified 5% CO2 atmosphere (bulk stimulation with or without BAFF). The next day, the cell concentration was adjusted to 1×10^7 cells/ml in DMEM+/−250 ng/ml BAFF +/−10 μM MG132 and plated at 10 μl/well into compound or DMSO spotted 384 well TC plates. Seeded cells were incubated at 37° C. in a humidified 5% CO2 atmosphere for 6 h. After 6 h, the plates were removed from the incubator and cell lysis was achieved by the addition of 2.5 μl 5×lysis buffer containing protease and phosphatase inhibitors, followed by shaking on a plate shaker at room temperature for 15 min. At the end of this incubation, lysed cells were sequentially treated and incubated with acceptor and donor bead mixes according to the manufacturer's protocol for a 1 plate/2-incubation suspension cell assay (AlphaLISA SureFire Ultra p-IKKa (Ser 176/180) Assay Kit (Perkin Elmer). Plates were read using an EnVision Multilabel Plate Reader (Perkin Elmer). Within an experiment, a concentration response curve for each compound was run in duplicate. The signal obtained in the test wells was normalized using high signal (BAFF stimulated cells, DMSO, MG132) and low signal (unstimulated cells, DMSO) controls. To determine the IC50, a sigmoidal curve was fitted to the plot of % inhibition versus Log10 compound concentration.

**Q.** With `CN1CC[C@@](O)(c2cc(-c3cccc(-c4ccnc(Nc5nn(C)c6c5CNC6)n4)c3)no2)C1=O` [Example 418, (R)-3-Hydroxy-1-methyl-3-(3-(3-(2-((1-methyl-1,4,5,6-tetrahydropyrrolo[3,4-c]pyrazol-3-yl)amino)pyrimidin-4-yl)phenyl)isoxazol-5-yl)pyrrolidin-2-one] as the molecule, how does the IC50 read?
**A.** > 500 nM

**Q.** For `C[C@H](Nc1nccc(-c2cccc(-c3cc([C@]4(O)CCN(C)C4=O)on3)n2)n1)c1ccc2nccn2c1` [Example 153, (R)-3-Hydroxy-3-(3-(6-(2-(((S)-1-(imidazo[1,2-a]pyridin-6-yl)ethyl)amino)pyrimidin-4-yl)pyridin-2-yl)isoxazol-5-yl)-1-methylpyrrolidin-2-one], which IC50 is on record?
**A.** > 500 nM

**Q.** With `Cc1nn(CC(F)F)cc1Nc1nccc(-c2cccc(-c3cc([C@]4(O)CCN(C)C4=O)on3)n2)n1` [Example 57, (R)-3-(3-(6-(2-((1-(2,2-Difluoroethyl)-3-methyl-1H-pyrazol-4-yl)amino)pyrimidin-4-yl)pyridin-2-yl)isoxazol-5-yl)-3-hydroxy-1-methylpyrrolidin-2-one] as the molecule, how does the IC50 read?
**A.** < 50 nM

**Q.** Which IC50 does the source give for `COc1ccc(Nc2nccc(-c3cccc(-c4cc([C@]5(O)CCN(C)C5=O)on4)n3)n2)cn1` [Example 285, (R)-3-Hydroxy-3-(3-(6-(2-((6-methoxypyridin-3-yl)amino)pyrimidin-4-yl)pyridin-2-yl)isoxazol-5-yl)-1-methylpyrrolidin-2-one] here?
**A.** < 50 nM

**Q.** For `CN1CC[C@@](O)(c2cnc(-c3cccc(-c4ccnc(Nc5ccn(C)n5)n4)n3)s2)C1=O` (single isomer, unassigned) [Example 78], which IC50 is on record?
**A.** > 500 nM

**Q.** With `[2H]c1cc(-c2cccc(-n3cc([C@]4(O)CCN(C)C4=O)nn3)n2)nc(Nc2ccn(CC)n2)n1` [Example 301, (R)-3-(1-(6-(2-((1-Ethyl-1H-pyrazol-3-yl)amino)pyrimidin-4-yl-6-d)pyridin-2-yl)-1H-1,2,3-triazol-4-yl)-3-hydroxy-1-methylpyrrolidin-2-one] as the molecule, how does the IC50 read?
**A.** < 50 nM

**Q.** For `COc1cn(C)nc1C(C)Nc1nccc(-c2cccc(-c3cc([C@]4(O)CCN(C)C4=O)on3)n2)n1` (stereo partly drawn) [Example 392, (3R)-3-Hydroxy-3-(3-(6-(2-((1-(4-methoxy-1-methyl-1H-pyrazol-3-yl)ethyl)amino)pyrimidin-4-yl)pyridin-2-yl)isoxazol-5-yl)-1-methylpyrrolidin-2-one], which IC50 is on record?
**A.** > 500 nM

**Q.** `CN1CC[C@@](O)(c2cc(-c3cccc(-c4ccnc(NC5CC56CCOC6)n4)n3)no2)C1=O` (stereo partly drawn) [Example 350, (3R)-3-(3-(6-(2-((5-Oxaspiro[2.4]heptan-1-yl)amino)pyrimidin-4-yl)pyridin-2-yl)isoxazol-5-yl)-3-hydroxy-1-methylpyrrolidin-2-one] was tested. Which IC50 did it give?
**A.** > 500 nM

**Q.** With `C[C@@H](Nc1nccc(-c2cccc(-c3cc([C@]4(O)CCN(C)C4=O)on3)n2)n1)c1cn2ccccc2n1` [Example 393, (R)-3-Hydroxy-3-(3-(6-(2-(((R)-1-(imidazo[1,2-a]pyridin-2-yl)ethyl)amino)pyrimidin-4-yl)pyridin-2-yl)isoxazol-5-yl)-1-methylpyrrolidin-2-one] as the molecule, how does the IC50 read?
**A.** 50 to 500 nM

**Q.** Which IC50 does the source give for `C[C@H](Nc1nccc(-c2cccc(-c3cc([C@]4(O)CCN(C)C4=O)on3)n2)n1)C(N)=O` [Example 182, (S)-2-((4-(6-(5-((R)-3-Hydroxy-1-methyl-2-oxopyrrolidin-3-yl)isoxazol-3-yl)pyridin-2-yl)pyrimidin-2-yl)amino)propanamide] here?
**A.** 50 to 500 nM

**Q.** Which IC50 does the source give for `CN1C(=O)[C@](O)(c2cc(-c3cccc(-c4ccnc(Nc5cnn6c5CCC6)n4)n3)no2)[C@H]2C[C@H]21` [Example 133, (1R,4R,5S)-4-(3-(6-(2-((5,6-Dihydro-4H-pyrrolo[1,2-b]pyrazol-3-yl)amino)pyrimidin-4-yl)pyridin-2-yl)isoxazol-5-yl)-4-hydroxy-2-methyl-2-azabicyclo[3.1.0]hexan-3-one] here?
**A.** < 50 nM

**Q.** How did the IC50 turn out when `CO[C@@H]1CCOC[C@H]1Nc1nccc(-c2cccc(-c3cc([C@]4(O)CCN(C)C4=O)on3)n2)n1` [Example 338, (R)-3-Hydroxy-3-(3-(6-(2-(((trans)-4-methoxytetrahydro-2H-pyran-3-yl)amino)pyrimidin-4-yl)pyridin-2-yl)isoxazol-5-yl)-1-methylpyrrolidin-2-one] was run?
**A.** > 500 nM

**Q.** `CN1CC[C@](O)(c2csc(-c3cccc(-c4ccnc(Nc5ccn(C)n5)n4)n3)n2)C1=O` (single isomer, unassigned) [Example 80] was tested. Which IC50 did it give?
**A.** > 500 nM

**Q.** With `CN1CC[C@@](O)(c2cc(-c3cccc(-c4ccnc(NC5COCC5(F)F)n4)n3)no2)C1=O` (mixture of isomers) [Example 465, (3R)-3-(3-(6-(2-((4,4-Difluorotetrahydrofuran-3-yl)amino)pyrimidin-4-yl)pyridin-2-yl)isoxazol-5-yl)-3-hydroxy-1-methylpyrrolidin-2-one] as the molecule, how does the IC50 read?
**A.** 50 to 500 nM

**Q.** `COc1cncc(Nc2nccc(-c3cccc(-c4cc([C@]5(O)CCN(C)C5=O)on4)n3)n2)c1` [Example 288, (R)-3-Hydroxy-3-(3-(6-(2-((5-methoxypyridin-3-yl)amino)pyrimidin-4-yl)pyridin-2-yl)isoxazol-5-yl)-1-methylpyrrolidin-2-one] was tested. Which IC50 did it give?
**A.** < 50 nM

**Q.** Which IC50 does the source give for `Cc1c(Nc2nccc(-c3cccc(-c4cc([C@@]5(O)C(=O)N(C)[C@@H]6C[C@@H]65)on4)n3)n2)cnn1C` [Example 241, (1R,4R,5S)-4-(3-(6-(2-((1,5-Dimethyl-1H-pyrazol-4-yl)amino)pyrimidin-4-yl)pyridin-2-yl)isoxazol-5-yl)-4-hydroxy-2-methyl-2-azabicyclo[3.1.0]hexan-3-one] here?
**A.** 50 to 500 nM

**Q.** With `CCO[C@@H]1COC[C@H]1Nc1nccc(-c2cccc(-c3cc([C@]4(O)CCN(C)C4=O)on3)n2)n1` [Example 352, (R)-3-(3-(6-(2-(((trans)-4-Ethoxytetrahydrofuran-3-yl)amino)pyrimidin-4-yl)pyridin-2-yl)isoxazol-5-yl)-3-hydroxy-1-methylpyrrolidin-2-one] as the molecule, how does the IC50 read?
**A.** 50 to 500 nM

**Q.** With `CN1CC[C@@](O)(c2cc(-c3cccc(-c4ccnc(N[C@H]5C[C@H](F)C5)n4)n3)no2)C1=O` [Example 349, (R)-3-(3-(6-(2-(((1r,3R)-3-Fluorocyclobutyl)amino)pyrimidin-4-yl)pyridin-2-yl)isoxazol-5-yl)-3-hydroxy-1-methylpyrrolidin-2-one] as the molecule, how does the IC50 read?
**A.** 50 to 500 nM

**Q.** `C[C@@H](Nc1nccc(-c2cccc(-c3cc([C@]4(O)CCN(C)C4=O)on3)n2)n1)c1cccnc1` [Example 375, (R)-3-Hydroxy-1-methyl-3-(3-(6-(2-(((R)-1-(pyridin-3-yl)ethyl)amino)pyrimidin-4-yl)pyridin-2-yl)isoxazol-5-yl)pyrrolidin-2-one] was tested. Which IC50 did it give?
**A.** 50 to 500 nM

**Q.** Which IC50 does the source give for `CN1CC[C@@](O)(c2cc(-c3cccc(-c4ccnc(NCC5CCOCC5)n4)n3)no2)C1=O` [Example 340, (R)-3-Hydroxy-1-methyl-3-(3-(6-(2-(((tetrahydro-2H-pyran-4-yl)methyl)amino)pyrimidin-4-yl)pyridin-2-yl)isoxazol-5-yl)pyrrolidin-2-one] here?
**A.** 50 to 500 nM

**Q.** How did the IC50 turn out when `CN1CC[C@@](O)(c2cn(-c3cccc(-c4ccnc(Nc5cn(C)nc5OCC(F)F)n4)n3)nn2)C1=O` [Example 205, (R)-3-(1-(6-(2-((3-(2,2-Difluoroethoxy)-1-methyl-1H-pyrazol-4-yl)amino)pyrimidin-4-yl)pyridin-2-yl)-1H-1,2,3-triazol-4-yl)-3-hydroxy-1-methylpyrrolidin-2-one] was run?
**A.** < 50 nM

**Q.** `CN1CC[C@@](O)(c2cc(-c3cccc(-c4nc(Nc5ccn(C)n5)ncc4F)c3)no2)C1=O` [Example 425, (R)-3-(3-(3-(5-Fluoro-2-((1-methyl-1H-pyrazol-3-yl)amino)pyrimidin-4-yl)phenyl)isoxazol-5-yl)-3-hydroxy-1-methylpyrrolidin-2-one] was tested. Which IC50 did it give?
**A.** > 500 nM

**Q.** Which IC50 does the source give for `CN1CC[C@@](O)(c2cc(-c3cccc(-c4nc(Nc5cnn(C)c5)ncc4F)c3)no2)C1=O` [Example 423, (R)-3-(3-(3-(5-Fluoro-2-((1-methyl-1H-pyrazol-4-yl)amino)pyrimidin-4-yl)phenyl)isoxazol-5-yl)-3-hydroxy-1-methylpyrrolidin-2-one] here?
**A.** > 500 nM

**Q.** Which IC50 does the source give for `CN1CC[C@@](O)(c2cc(-c3cccc(-c4ccnc(Nc5cc(CN6CCOCC6)n(C)n5)n4)n3)no2)C1=O` [Example 434, (R)-3-Hydroxy-1-methyl-3-(3-(6-(2-((1-methyl-5-(morpholinomethyl)-1H-pyrazol-3-yl)amino)pyrimidin-4-yl)pyridin-2-yl)isoxazol-5-yl)pyrrolidin-2-one] here?
**A.** 50 to 500 nM
